What was measured:
rice = test: Oxidation stress resistance against methyl viologen in rice (leaf chlorosis, chlorophyll content), Example 9; format: in vivo, rice (variety: Nipponbare); conditions: 0.5 mM, 2.5 μM methyl viologen, 30° C. 3 days
Method: A rice strain (the variety: Nipponbare) was used as an experimental material. Rice seeds were purchased from Nouken.
A Murashige and Skoog Plant Salt Mixture (2.2 g) was dissolved in 1 l of pure water, a pH was adjusted to 5.8, and the resultant was autoclaved (121° C., 20 minutes).
Seeds were sterilized by incubation with the use of a Kitchen Haiter® diluted to 2-fold with pure water for 20 minutes. The sterilized seeds were washed 3 times with sterile water, 30 grains of seeds were soaked in a 50-ml conical tube (Falcon) containing 10 ml of sterile water, and the seeds were cultured in an incubator maintained at 30° C. (16 hours light and 8 hours darkness) for 3 days to germinate the seeds.
After the seeds were incubated for 3 days, the growth medium was dispensed at 3 ml/well to the sterilized 12-well microplate (IWAKI), and the germinated seeds were seeded at 3 grains/well. To each well, 0.5 mM N-acetylglutamic acid or an equivalent amount of sterile water was added, and the seeds were incubated at 30° C. for 1 day. […]
Leaf chlorosis is observed in plants upon oxidation stress exposure. Thus, an extent of chlorosis was evaluated by measuring the content of the green pigment chlorophyll in leaves. […] The chlorophyll content was calculated in the same manner as in Example 1.

H1ZAT12 = H1ZAT12 gene expression by real-time PCR, Example 13; format: in vivo, hop; conditions: 1 mM in medium, 20° C. for 2 hours, leaves; read-out: H1ZAT12 expression level, increase vs control
Text: The materials as used in Example 4 were used.
The medium as used in Example 4 were used.
In order to design primers for the target genes necessary for gene expression analysis by real-time PCR, homologs of Arabidopsis thaliana oxidation stress-responsive genes in hop were searched for. The amino acid sequences of Arabidopsis thaliana ZAT10 (AGI code: AT1G27730) and ZAT12 (AGI code: AT5G59820) were obtained from TAIR (https://www.arabidopsis.org/), and the nucleotide sequences of the gene homologs were obtained using Hopbase (http:/hopbase.cgrb.oregonstate.edu/). […] As the reference gene, the nucleotide sequence of the homolog of Arabidopsis thaliana EF1α (AGI code: AT1G18070) was obtained. The hop homolog genes were designated as H1ZAT10, H1ZAT12, and HIEF1α, respectively.
The leaves in the first and the second nodes from the apical buds of the tissue-cultured seedlings were sampled 1.5 months after the initiation of subculture and inoculated into a liquid medium consisting of a ½ Murashige and Skoog Plant Salt Mixture and 2 (w/v) % glucose. Specifically, a liquid medium was dispensed at 5 ml/well to a 6-well microplate, and 5 hop leaves were mounted thereon. […]
Thereafter, the relative expression levels of the target genes upon N-acetylglutamic acid treatment were calculated by the ΔΔCt method.

HAC1 = HAC1 gene expression by real-time PCR, Example 15; format: in vivo; conditions: Arabidopsis thaliana; 0.1 mM in medium, 2 hours after application, 22° C.; read-out: HAC1 expression level, increase vs group not subjected to the treatment
Method: The materials as used in Example 14 were used.
A liquid medium containing a ½ Murashige and Skoog Plant Salt Mixture (Nacalai) and 1 (w/v) % sucrose (FUJIFILM Wako) was used as a growth medium.
Arabidopsis thaliana seeds were sterilized with the use of a Kitchen Haiter® liquid (Kao Corporation) diluted to one-half concentration with distilled water for 3 minutes, washed 3 times with sterile distilled water, and then incubated at 4° C. overnight. The growth medium was dispensed at 1 ml/well on a 12-well microplate (IWAKI), 5 grains of the seeds were inoculated in each well, and the plate was transferred to the incubator (TOMY) to initiate growing. The incubator was maintained at a temperature of 22° C. for a daily cycle of 16 hours light and 8 hours darkness.
N-acetylglutamic acid was applied to Arabidopsis thaliana 7 days after inoculation to the final concentration of 0.1 mM in the medium, followed by incubation for 2 hours or 6 hours. The incubator was maintained at a temperature of 22° C. for a daily cycle of 16 hours light and 8 hours darkness. After incubation, the samples were frozen with liquid nitrogen, and RNA was extracted using the RNeasy Plant Mini Kit […]. […]
Thereafter, the relative expression levels of the target genes upon N-acetylglutamic acid treatment were calculated by the ΔΔCt method using the Cp values obtained by real-time PCR.

SMILES: CC(=O)N[C@@H](CCC(=O)O)C(=O)O [N-acetylglutamic acid]
- leaf chlorosis in MV-treated group (rice): substantially no leaf chlorosis was observed
- chlorophyll content of the MV-treated groups (rice; second leaf, fresh weight basis): increased
- fold induction at 1000 µM (H1ZAT12): 1.9
- fold induction at 100 µM (HAC1): 1.2

Reference: patent US20260324636A1, “COMPOSITION FOR PROVIDING PLANT WITH STRESS RESISTANCE” (KIRIN HOLDINGS KABUSHIKI KAISHA, priority 2022, published 2026)
